In US10196373B2, “Substituted 2-hydroxy-4-(2-(phenylsulfonamido)acetamido)benzoic acid analogs as inhibitors of STAT protein” (University of Central Florida Research Foundation, Inc., priority 2010, dated 2019) one finds IC50 and Ki data, which are given here for 17 compounds.

Read-outs that look alike come from different tables or passages of the source. Where only a bound is given, the exact number is not on record here.

The subject of one assay is MDA-468 cells. Briefly: Cell viability, MTS assay. As to conditions: Homo sapiens, MDA-468, 72 hours. In kind it is cell-based. On the procedure: (§1) To further test activity of these molecules, a whole-cell study involving cancer lines with known abherrant STAT3 expression was conducted. These human cell lines, including prostate cancer (DU145), breast cancer (MDA468), and promyelocytic leukemia (HL-60) were treated with the peptidomimetics and incubated for 72 hours. Disruption of cell viability was measured by MTS assay and IC50 values for the potential inhibitors was determined. OriginPro 8 (Northampton, Mass.) was used to evaluate EC50 using the dose response curve defined as follows:
(§2) [formula] where y is the fraction of death, x is the log of drug concentration. A2 is the top asymptote, A1 is the bottom asymptote, logx0 is the center of the curve, and p is the hill slope.

The next assay deals with DU-145 cells. Briefly: Cell viability, MTS assay. The following applies: Homo sapiens, DU-145, 72 hours. In kind it is cell-based. The protocol: as §1, §2
On the technique in general: Formazan colour is commonly taken as a measure of viable cells.

A further assay relates to HL60 cells. Briefly: Cell viability, MTS assay. The class given is cell-based. The following applies: Homo sapiens, HL-60, HL60, 72 hours. On the procedure:
as §1, §2

For assay [1], the target named is STAT3 (Homo sapiens (Human), UniProt P40763). Briefly: Fluorescence polarization assay, inhibition of binding to STAT3. The following applies: inhibition of binding to STAT3 in a fluorescence polarization assay; read-out: Ki (FP). On the procedure:
The fluorescent polarization experiments were performed on an Infinite M1000 (Tecan, Crailsheim, Germany). All assays were performed in the same buffer conditions of 50 mM NaCl, 10 mM Hepes, pH 7.5, 1 mM EDTA, and 2 mM dithiothreitol. Fluorescent-labelled peptides were kept at a final concentration of 10nM in buffered solution. […] of labelled peptides were added to […] of a 300 nM STAT3 protein solution (provided by SignalChem in 50 mM Tris-HCl, pH 7.5, 150 mM NaCl, 0.25 mM DTT, 0.1 mM PMSF, 25% glycerol and stored at −80° C.). Inhibitory molecules were dissolved in pure DMSO and diluted using buffer solution to produce four final concentrations ([…]). 7.5 μL of the inhibitory molecule solution was mixed with the STAT3 protein and labelled peptide solution in black 384-flat well microplates (Coming), and incubated for 15-30 minutes. The M1000 performed a shaking cycle and then read the plates. IC50′s were derived from the output using the curve-fitting software OriginPro 8 (Northampton, MA). The FP data was modelled by the following equation:
[formula] where X was the concentration of inhibitor and ρwas the corresponding fluorescence at that concentration. The free parameter was half the maximal inhibitory concentration (IC50) and the limiting values was the maximal measured fluorescence polarization (ρ1) and the minimal fluorescence polarization (ρ2). Origin curve fitting software utilizes the Levenberg-Marquardt algorithm and reduced chi-square criterion for convergence. The inhibitor dissociation constant, Ki, was calculated from the derived IC50 values, as per the following formula: […]
Further details of the fluorescence polarization assay are as described previously (Zhang X, et al. (2010) A novel small-molecule disrupts Stat3 SH2domainphosphotyrosine interactions and Stat3-dependent tumor processes. Biochem Pharmacol 79: 1398-1409).
In general terms: In fluorescence polarisation assays a small probe gives low polarisation when free and higher when bound to something large.

Assay [2] deals with STAT3 (Mus musculus, UniProt P42227). Briefly: Stat3 DNA-binding activity, electrophoretic mobility shift assay (EMSA) with nuclear extracts. The class given is biochemical. On the procedure:
Nuclear extract preparations and electrophoretic mobility shift assay (EMSA) were carried out as previously described (Yang J, et al. (2005) Cancer Res. 65:939-947). […] For direct effect of a test compound on Stat3 DNA-binding activity, nuclear extracts were pre-incubated with the agent for 30 min at room temperature prior to incubation with the radiolabeled probe for 30 min at 30° C. before subjecting to EMSA analysis. […] Cytosolic extract preparation from mammalian cells and luciferase assay previously described (Zhang X, et al. (2010) Biochem Pharmacol 79:1398-1409; Turkson J, et al. (1999) Mol. Cell. Biol. 19:7519-7528; Turkson J, et al. (1998) Mol. Cell. Biol. 18:2545-2552).)

The test system of another assay is OCI-AMI.2 cells. Briefly: Cell viability, MTS assay. In kind it is cell-based.
Setting [3] is: inhibition of STAT3 activity in an EMSA.

Chain of STAT3 (Mus musculus, UniProt P42227) (P42227 2-770 limits assumed): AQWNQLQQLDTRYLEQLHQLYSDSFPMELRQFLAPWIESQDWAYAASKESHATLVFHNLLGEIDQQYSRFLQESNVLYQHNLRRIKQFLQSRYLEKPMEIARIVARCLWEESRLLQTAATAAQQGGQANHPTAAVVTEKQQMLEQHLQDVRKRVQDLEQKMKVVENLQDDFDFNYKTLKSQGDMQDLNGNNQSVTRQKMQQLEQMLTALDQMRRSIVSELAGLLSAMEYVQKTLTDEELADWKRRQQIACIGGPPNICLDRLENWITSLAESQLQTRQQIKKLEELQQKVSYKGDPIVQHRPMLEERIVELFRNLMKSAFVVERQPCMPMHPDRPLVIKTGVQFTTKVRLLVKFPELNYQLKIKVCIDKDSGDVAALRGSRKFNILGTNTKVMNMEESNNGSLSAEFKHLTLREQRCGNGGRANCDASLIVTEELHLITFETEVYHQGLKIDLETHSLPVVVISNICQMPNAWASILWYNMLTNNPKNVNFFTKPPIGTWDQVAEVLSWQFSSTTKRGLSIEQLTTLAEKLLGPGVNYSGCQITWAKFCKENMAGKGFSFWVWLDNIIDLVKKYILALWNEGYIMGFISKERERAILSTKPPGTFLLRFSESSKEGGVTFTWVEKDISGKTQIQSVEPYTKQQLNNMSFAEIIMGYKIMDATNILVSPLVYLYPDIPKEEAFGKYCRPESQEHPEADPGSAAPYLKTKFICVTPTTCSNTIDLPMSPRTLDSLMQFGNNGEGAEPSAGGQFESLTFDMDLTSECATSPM
Chain of STAT3 (Homo sapiens (Human), UniProt P40763) (P40763 whole entry): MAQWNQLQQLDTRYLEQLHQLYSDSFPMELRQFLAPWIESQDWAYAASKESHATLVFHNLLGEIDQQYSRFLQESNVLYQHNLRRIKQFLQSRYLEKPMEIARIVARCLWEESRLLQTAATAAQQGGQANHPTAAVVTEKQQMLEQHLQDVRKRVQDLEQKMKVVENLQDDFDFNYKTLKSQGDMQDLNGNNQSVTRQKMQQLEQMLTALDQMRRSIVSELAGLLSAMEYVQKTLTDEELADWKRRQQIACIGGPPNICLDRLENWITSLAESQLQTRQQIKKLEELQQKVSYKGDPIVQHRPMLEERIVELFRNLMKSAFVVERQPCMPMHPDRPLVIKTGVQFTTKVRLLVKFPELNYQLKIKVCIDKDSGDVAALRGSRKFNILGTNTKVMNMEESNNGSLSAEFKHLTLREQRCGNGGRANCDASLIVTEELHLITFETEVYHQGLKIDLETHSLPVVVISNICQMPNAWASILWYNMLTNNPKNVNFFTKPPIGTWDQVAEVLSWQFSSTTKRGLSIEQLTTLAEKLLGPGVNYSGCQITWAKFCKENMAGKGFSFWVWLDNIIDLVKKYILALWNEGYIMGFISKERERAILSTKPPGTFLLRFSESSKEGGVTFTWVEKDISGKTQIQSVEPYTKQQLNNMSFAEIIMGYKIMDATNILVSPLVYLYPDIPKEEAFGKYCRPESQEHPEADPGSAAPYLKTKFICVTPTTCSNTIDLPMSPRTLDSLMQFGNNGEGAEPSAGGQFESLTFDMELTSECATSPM

With `Cc1ccc(S(=O)(=O)N(C)CC(=O)N(Cc2ccc(C3CCN(S(=O)(=O)c4ccc(C#N)cc4)CC3)cc2)c2ccc(C(=O)O)c(O)c2)cc1` [Compound 27KG, 4-(N-(4-(1-((4-cyanophenyl)sulfonyl)piperidin-4-yl)benzyl)-2-(N,4-dimethylphenyl-sulfonamido)acetamido)-2-hydroxybenzoic acid], the IC50 (in general, the concentration that gives 50% inhibition) with MDA-468 cells was 94.9 ± 8.8 µM; in the assay on DU-145 cells it was above 100 µM; in the assay with HL60 cells, 83.1 ± 13.5 µM; at STAT3 [2] (setting [3]), 50 ± 15 µM; in the assay with OCI-AMI.2 cells it was above 100 µM. At STAT3 [1], the Ki (as a rule, the dissociation constant of the complex between target and ligand, obtained from inhibition or displacement) came to 21.5 ± 2.2 µM.
As for `CN(CC(=O)N(Cc1ccc(C2CCCCC2)cc1)c1ccc(C(=O)O)c(O)c1)S(=O)(=O)c1ccc(Cl)cc1` [Compound 45K, 4-(2-(4-chloro-N-methylphenylsulfonamido)-(4-cyclohexylbenzyl)acetamido)-2-hydroxy-benzoic acid], the IC50 in the assay on MDA-468 cells turned out to be 29.7 ± 16.7 µM; with DU-145 cells, 67.5 ± 24.2 µM; with HL60 cells, 56.3 ± 9.3 µM; with OCI-AMI.2 cells, 76.4 ± 10.8 µM.
With `Cc1ccc(S(=O)(=O)N(C)CC(=O)N(Cc2ccc(-c3ccc(-c4ccc(C#N)cc4)cc3)cc2)c2ccc(C(=O)O)c(O)c2)cc1` [Compound 27NG, 4-(N-((4′-cyanoterphenyl-4-yl)methyl)-2-(N,4-dimethylphenylsulfonamido)acetamido)-2-hydroxybenzoic acid], the IC50 was 32.5 ± 15.5 µM in the assay on MDA-468 cells, 94.4 ± 6.8 µM in the assay on DU-145 cells, 37.4 ± 14 µM in the assay on HL60 cells and 58.4 ± 13.8 µM in the assay with OCI-AMI.2 cells.
`Cc1ccc(S(=O)(=O)N(C)CC(=O)N(Cc2ccc(-c3ccc(-c4ccc(C(N)=O)cc4)cc3)cc2)c2ccc(C(=O)O)c(O)c2)cc1` [Compound 27NH, 4-(N-((4″-carbamoyl-[1,1′:4′,1″-terphenyl]-4-yl)methyl)-2-(N,4-dimethylphenylsulfonamido)acetamido)-2-hydroxybenzoic acid]: the Ki at STAT3 [1] was 16.7 ± 1.7 µM. For the same compound, the IC50 at STAT3 [2] is 43 ± 1.3 µM.
Regarding `CN(CC(=O)N(Cc1ccc(C2CCCCC2)cc1)c1ccc(C(=O)O)c(O)c1)S(=O)(=O)c1cccc2ccccc12` [Compound 45E, 4-(N-(4-cyclohexylbenzyl)-2-(N-methylnaphthalene-1-sulfonamido)acetamido)-2-hydroxy-benzoic acid], the IC50 was 46.5 ± 12.4 µM in the assay on MDA-468 cells; 74.5 ± 30.2 µM in the assay on DU-145 cells; 76.9 ± 50.5 µM with HL60 cells; 28.8 ± 2 µM at STAT3 [2] (setting [3]); 33.3 ± 19.8 µM with OCI-AMI.2 cells. Besides, the Ki on STAT3 [1] was determined as 26.5 ± 0.4 µM.
Regarding `CN(CC(=O)N(Cc1ccc(C2CCCCC2)cc1)c1ccc(C(=O)O)c(O)c1)S(=O)(=O)c1ccc([N+](=O)[O-])cc1` [Compound 45N, 4-(N-(4-cyclohexylbenzyl)-2-(N-methyl-4-nitrophenylsulfonamido)acetamido)-2-hydroxy benzoic acid], the IC50 in the assay with MDA-468 cells was 51.7 ± 14.2 µM; in the assay on DU-145 cells, above 100 µM; in the assay on HL60 cells, 99.3 ± 62.1 µM; in the assay on OCI-AMI.2 cells it was 96.3 ± 18.5 µM.
As for `CN(CC(=O)N(Cc1ccc(C2CCCCC2)cc1)c1ccc(C(=O)O)c(O)c1)S(=O)(=O)c1ccc(Br)cc1` [Compound 45J], the IC50 was 19.5 ± 2 µM with MDA-468 cells, 45.9 ± 8.6 µM in the assay with DU-145 cells, 47.4 ± 8.2 µM with HL60 cells and 44.9 ± 7.1 µM with OCI-AMI.2 cells.
The like results for `Cc1cccc(S(=O)(=O)N(C)CC(=O)N(Cc2ccc(C3CCCCC3)cc2)c2ccc(C(=O)O)c(O)c2)c1` [Compound 45A, 4-(N-(4-cyclohexylbenzyl)-2-(N,3-dimethylphenylsulfonamido)acetamido)-2-hydroxy-benzoic acid] were, in that order, 59.6 ± 4 µM, 90.4 ± 3.1 µM, 78.5 ± 1.8 µM and 85.9 ± 0.4 µM.
The like results for `COC(=O)c1ccc(-c2ccc(-c3ccc(CN(C(=O)CN(C)S(=O)(=O)c4ccc(C)cc4)c4ccc(C(=O)O)c(O)c4)cc3)cc2)cc1` [Compound 27NE] were, in that order, 96.3 ± 31.7 µM, above 100 µM, above 100 µM and above 100 µM.
Take `Cc1ccc(S(=O)(=O)N(C)CC(=O)N(Cc2ccc(-c3ccc(C(=O)O)cc3)cc2)c2ccc(C(=O)O)c(O)c2)cc1` [Compound 27LE, 4′-((N-(4-carboxy-3-hydroxyphenyl)-2-(N,4-dimethylphenylsulfonamido)acetamido)methyl)-[1,1′-biphenyl]-4-carboxylic acid]: the IC50 with MDA-468 cells was 52.9 ± 22.5 µM; in the assay on DU-145 cells, above 100 µM; with HL60 cells, 68 ± 32.8 µM; in the assay with OCI-AMI.2 cells, 76.7 ± 27.1 µM.
Consider `COc1ccc(S(=O)(=O)N(C)CC(=O)N(Cc2ccc(C3CCCCC3)cc2)c2ccc(C(=O)O)c(O)c2)cc1` [Compound 45M, 4-(N-(4-cyclohexylbenzyl)-2-(4-methoxy-N-methylphenylsulfonamido)acetamido)-2-hydroxybenzoic acid], for which the IC50 was 71.4 ± 13.6 µM in the assay on MDA-468 cells, 92.7 ± 27.9 µM with DU-145 cells, above 100 µM in the assay on HL60 cells and above 100 µM with OCI-AMI.2 cells.
For `CN(C)c1cccc2c(S(=O)(=O)N(C)CC(=O)N(Cc3ccc(C4CCCCC4)cc3)c3ccc(C(=O)O)c(O)c3)cccc12` [Compound 45G, 4-(N-(4-cyclohexylbenzyl)-2-(5-(dimethylamino)-N-methylnaphthalene-1-sulfonamido)acetamido)-2-hydroxybenzoic acid], the IC50 with MDA-468 cells was 45.5 ± 7.9 µM; with DU-145 cells, above 100 µM; in the assay on HL60 cells, 74.9 ± 20.2 µM; in the assay on OCI-AMI.2 cells it was above 100 µM.
As for `CN(CC(=O)N(Cc1ccc(C2CCCCC2)cc1)c1ccc(C(=O)O)c(O)c1)S(=O)(=O)c1cn(C)cn1` [Compound 45H, 4-(N-(4-cyclohexylbenzyl)-2-(N,1-dimethyl-1H-imidazole-4-sulfonamido)acetamido)-2-hydroxybenzoic acid], the IC50 in the assay with MDA-468 cells, in the assay on DU-145 cells, in the assay with HL60 cells and with OCI-AMI.2 cells was above 100 µM each time.
For the compound `CN(CC(=O)N(Cc1ccc(C2CCCCC2)cc1)c1ccc(C(=O)O)c(O)c1)S(=O)(=O)c1ccc(C#N)cc1` [Compound 45I, 4-(2-(4-cyano-N-methylphenylsulfonamido)-N-(4-cyclohexylbenzyl)acetamido)-2-hydroxy-benzoic acid], the IC50 in the assay with MDA-468 cells is 27 ± 2.7 µM; in the assay with DU-145 cells it was 69.6 ± 3.4 µM; in the assay on HL60 cells it was 59.1 ± 11.5 µM; with OCI-AMI.2 cells, 53.5 ± 22.8 µM.
For `CN(CC(=O)N(Cc1ccc(C2CCCCC2)cc1)c1ccc(C(=O)O)c(O)c1)S(=O)(=O)c1ccc(F)cc1` [Compound 45L, 4-(N-(4-cyclohexylbenzyl)-2-(4-fluoro-N-methylphenylsulfonamido)acetamido)-2-hydroxy benzoic acid] the same measures were 41.3 ± 5.7 µM, 72.7 ± 18.4 µM, 75.1 ± 25.1 µM and 84.4 ± 22.1 µM.
The like results for `Cc1ccc(S(=O)(=O)N(C)CC(=O)N(Cc2ccc(-c3ccc(-c4cccc(C#N)c4)cc3)cc2)c2ccc(C(=O)O)c(O)c2)cc1` [Compound 27NC] were, in that order, 90.5 ± 63.2 µM, above 100 µM, 82.8 ± 19 µM and above 100 µM.
`CN(CC(=O)N(Cc1ccc(C2CCCCC2)cc1)c1ccc(C(=O)O)c(O)c1)S(=O)(=O)c1ccc2ccccc2c1` [Compound 45D, 4-(N-(4-cyclohexylbenzyl)-2-(N-methylnaphthalene-2-sulfonamido)acetamido)-2-hydroxy-benzoic acid]: the IC50 in the assay on MDA-468 cells is 45.4 ± 23.2 µM; with DU-145 cells, 81 ± 39.3 µM; with HL60 cells it was 99.8 ± 15.6 µM; at STAT3 [2] (setting [3]), 79.2 ± 11.2 µM; with OCI-AMI.2 cells, 93.5 ± 32.2 µM.
